Source: PubChem BioAssay AID1259407 (Chemical Carcinogenesis Research Information System (CCRIS), 2018)
Activity calls are given as the source filed them. How the calls were made is not given here.

System: CCRIS mutagenicity, Ames/micronucleus/aberration tests
Test: CCRIS mutagenicity studies

CC(=O)C(Cl)(Cl)Cl
mutagenic call (Test System: AMES SALMONELLA TYPHIMURIUM, Strain/Indicator: TA98, Metabolic Activation: NONE, Method: STANDARD PLATE): active; positive | mutagenic call (Test System: AMES SALMONELLA TYPHIMURIUM, Strain/Indicator: TA98, Metabolic Activation: RAT, LIVER, S-9, AROCLOR 1254, Method: STANDARD PLATE): active; positive | mutagenic call (Test System: AMES SALMONELLA TYPHIMURIUM, Strain/Indicator: TA100, Metabolic Activation: NONE, Method: FLUCTUATION TEST): active; positive | mutagenic call (Test System: AMES SALMONELLA TYPHIMURIUM, Strain/Indicator: TA100, Metabolic Activation: NONE, Method: STANDARD PLATE): active; positive | mutagenic call (Test System: AMES SALMONELLA TYPHIMURIUM, Strain/Indicator: TA100, Metabolic Activation: RAT, LIVER, S-9, AROCLOR 1254, Method: FLUCTUATION TEST): inactive; negative | mutagenic call (Test System: AMES SALMONELLA TYPHIMURIUM, Strain/Indicator: TA100, Metabolic Activation: RAT, LIVER, S-9, AROCLOR 1254, Method: STANDARD PLATE): active; positive | mutagenic call (Test System: AMES SALMONELLA TYPHIMURIUM, Strain/Indicator: TA1535, Metabolic Activation: NONE, Method: STANDARD PLATE): active; positive | mutagenic call (Test System: AMES SALMONELLA TYPHIMURIUM, Strain/Indicator: TA1535, Metabolic Activation: RAT, LIVER, S-9, AROCLOR 1254, Method: STANDARD PLATE): active; positive | mutagenic call (Test System: AMES SALMONELLA TYPHIMURIUM, Strain/Indicator: TA1537, Metabolic Activation: NONE, Method: STANDARD PLATE): inactive; negative | mutagenic call (Test System: AMES SALMONELLA TYPHIMURIUM, Strain/Indicator: TA1537, Metabolic Activation: RAT, LIVER, S-9, AROCLOR 1254, Method: STANDARD PLATE): inactive; negative

CCC[N+](=O)[O-]
mutagenic call (Test System: AMES SALMONELLA TYPHIMURIUM, Strain/Indicator: TA98, Metabolic Activation: RAT LIVER S-9, PHENOBARBITAL AND BETA-NAPHTHOFLAVONE, Method: PREINCUBATION): inactive; negative | mutagenic call (Test System: AMES SALMONELLA TYPHIMURIUM, Strain/Indicator: TA98, Metabolic Activation: RAT, LIVER, S-9, AROCLOR, Method: PREINCUBATION): inactive; negative | mutagenic call (Test System: AMES SALMONELLA TYPHIMURIUM, Strain/Indicator: TA98, Metabolic Activation: RAT, LIVER, S-9, CLOPHEN A-50, Method: PREINCUBATION): inactive; negative | mutagenic call (Test System: AMES SALMONELLA TYPHIMURIUM, Strain/Indicator: TA98, Metabolic Activation: RAT, LIVER, S-9, KANECHLOR 500, Method: PREINCUBATION): inactive; negative | mutagenic call (Test System: AMES SALMONELLA TYPHIMURIUM, Strain/Indicator: TA100, Metabolic Activation: RAT LIVER S-9, PHENOBARBITAL AND BETA-NAPHTHOFLAVONE, Method: PREINCUBATION): inactive; negative | mutagenic call (Test System: AMES SALMONELLA TYPHIMURIUM, Strain/Indicator: TA100, Metabolic Activation: RAT, LIVER, S-9, AROCLOR, Method: PREINCUBATION): inactive; negative | mutagenic call (Test System: AMES SALMONELLA TYPHIMURIUM, Strain/Indicator: TA100, Metabolic Activation: RAT, LIVER, S-9, CLOPHEN A-50, Method: PREINCUBATION): inactive; negative | mutagenic call (Test System: AMES SALMONELLA TYPHIMURIUM, Strain/Indicator: TA100, Metabolic Activation: RAT, LIVER, S-9, KANECHLOR 500, Method: PREINCUBATION): inactive; negative | mutagenic call (Test System: AMES SALMONELLA TYPHIMURIUM, Strain/Indicator: TA102, Metabolic Activation: NONE, Method: PREINCUBATION): inactive; negative | mutagenic call (Test System: AMES SALMONELLA TYPHIMURIUM, Strain/Indicator: TA102, Metabolic Activation: RAT LIVER S-9, PHENOBARBITAL AND BETA-NAPHTHOFLAVONE, Method: PREINCUBATION): inactive; negative | mutagenic call (Test System: AMES SALMONELLA TYPHIMURIUM, Strain/Indicator: TA102, Metabolic Activation: RAT, LIVER, S-9, AROCLOR, Method: PREINCUBATION): inactive; negative | mutagenic call (Test System: AMES SALMONELLA TYPHIMURIUM, Strain/Indicator: TA104, Metabolic Activation: NONE, Method: PREINCUBATION): inactive; negative | mutagenic call (Test System: AMES SALMONELLA TYPHIMURIUM, Strain/Indicator: TA104, Metabolic Activation: RAT LIVER S-9, PHENOBARBITAL AND BETA-NAPHTHOFLAVONE, Method: PREINCUBATION): inactive; negative | mutagenic call (Test System: AMES SALMONELLA TYPHIMURIUM, Strain/Indicator: TA1535, Metabolic Activation: NONE, Method: PREINCUBATION): inactive; negative | mutagenic call (Test System: AMES SALMONELLA TYPHIMURIUM, Strain/Indicator: TA1535, Metabolic Activation: RAT LIVER S-9, PHENOBARBITAL AND BETA-NAPHTHOFLAVONE, Method: PREINCUBATION): inactive; negative | mutagenic call (Test System: AMES SALMONELLA TYPHIMURIUM, Strain/Indicator: TA1537, Metabolic Activation: NONE, Method: PREINCUBATION): inactive; negative | mutagenic call (Test System: AMES SALMONELLA TYPHIMURIUM, Strain/Indicator: TA1537, Metabolic Activation: RAT LIVER S-9, PHENOBARBITAL AND BETA-NAPHTHOFLAVONE, Method: PREINCUBATION): inactive; negative | mutagenic call (Test System: CHINESE HAMSTER V-79, Strain/Indicator: V-79/6-THIOGUANINE, Metabolic Activation: NONE, Method: STANDARD PLATE): active; positive | mutagenic call (Test System: E. COLI, Strain/Indicator: WP2 UVRA (PKM101), Metabolic Activation: NONE, Method: PREINCUBATION): inactive; negative | mutagenic call (Test System: E.COLI, Strain/Indicator: WP2UVRA/PKM101, Metabolic Activation: NONE, Method: PREINCUBATION): inactive; negative | mutagenic call (Test System: E.COLI, Strain/Indicator: WP2UVRA/PKM101, Metabolic Activation: RAT LIVER S-9, PHENOBARBITAL AND BETA-NAPHTHOFLAVONE, Method: PREINCUBATION): inactive; negative | mutagenic call (Test System: E.COLI, Strain/Indicator: WP2UVRA, Metabolic Activation: NONE, Method: PREINCUBATION): inactive; negative | mutagenic call (Test System: E.COLI, Strain/Indicator: WP2UVRA, Metabolic Activation: RAT LIVER S-9, PHENOBARBITAL AND BETA-NAPHTHOFLAVONE, Method: PREINCUBATION): inactive; negative | mutagenic call (Test System: UDS RAT HEPATOCYTES, Strain/Indicator: THY INCORP, Metabolic Activation: NONE): inactive; negative | mutagenic call (Test System: UDS RODENT HEPATOCYTES, Strain/Indicator: THY INCORP (NON-S-PHASE), Metabolic Activation: NONE, Method: PREINCUBATION): inactive; negative
